The test system of series [1] is metabolically active cells. The series can be described thus: Cell viability luminescence assay. The class given is cell-based. How it is done: Compound toxicity was measured in a luminescence assay that gives a signal proportional to the amount of metabolically active cells in the sample; the assay was performed as described by the supplier. All synthesized compounds were tested in the viability assay, and viability was registered at 24 hours and 72 hours.

Series [2] addresses GST-AKAP18δ: PLB-biotin interaction (Rattus norvegicus (Rat), UniProt Q6JP77). The series is described as follows: AKAP18δ-PLB AlphaScreen assay. The class given is binding. Here is the method:
Stable and optimal assay conditions were determined by cross-titrating GST-AKAP18 δ and biotinylated PLB using 10 μg/ml glutathione acceptor beads and 10 μg/ml streptavidin donor beads in an AlphaScreen assay. The excitation wavelength was 680 nm, with the emission wavelength being 520-560 nm. Signal intensity in each well was registered and the optimal concentration to use was chosen to be the concentration prior to the peak of the signal.
Concentrations to give a reliable signal were determined to be between 2 and 16 nM for AKAP18δ-GST and 4 and 20 nM PLB-biotin for relevant preparations of protein, for example 4 nM and 20 nM, respectively.
In general terms: Alpha assays give light when donor and acceptor beads are brought close together.

The subject of series [3] is PLB-Ser16 phosphorylation. The series can be described thus: PLB-Ser16 phosphorylation in rat neonatal cardiomyocytes after isoproterenol stimulation (western blot). The class given is cell-based. Particulars: 24 hours prior to isoproterenol 100 nM, 5 minutes. How it is done: Based on data from studies in cardiomyocytes assay using a peptide that blocks AKAP18δ-PLB interaction, it was expected that effective compounds would also cause disruption of the AKAP18δ-PLB complex and decrease PLB-Ser^16 phosphorylation (Lygren et al. in EMBO Reports, volume 8, issue 11, page 1061-1067 (2007). A small selection of hits from the derivatized compounds were tested in this cell-based assay, performed as described in Lygren et al.
Briefly, compounds were added to primary cultures of rat neonatal cardiomyocytes were added compounds about 24 hour prior stimulation with isoproterenol, and amount of phosphorylated Ser^16-PLB was analyzed by western blotting using a pSer^16-PLB phosphospecific antibody. Actin was used as a loading control.
Rat neonatal cardiomyocytes treated with compounds 24 hours prior stimulation with isoproterenol (100 nM, 5 minutes).
Following on Example 53, two compounds, 2g and 3d (FIGS. 9A,B and 9C, respectively), were tested in more detail for their ability to interfere with phosphorylation of phospholamban after stimulation of neonatal (FIGS. 9A and 9C) or adult (FIG. 9B) primary cultures of cardiomyocytes.

Series [4] deals with SERCA2 (Rattus norvegicus (Rat), UniProt P11507). The series is described as follows: Patch clamp based SERCA2 activity in adult rat cardiomyocytes. The class given is cell-based. The following applies: mesylate salt, 10 uM, in the presence of cAMP. How it is done:
Adult rat cardiomyocytes were isolated and perfused with external solution (NaCl 125, CsCl 20, D-glucose 5, MgCl2 1, CaCl2 1.8, Hepes 10, 4-aminopyridine 5, probenecid 2, pH 7.4 by NaCH). Cell dialysis was achieved by 1-2 MΩ patch pipettes, filled with (in mM): CsCl 115, TEACl 20, Hepes 10, MgATP 5, Na2-Phosphocreatinine 5, EGTA 0.04, cAMP 0.005, adjusted to pH=7.2 with CsOH. Compound 2g (mesylate salt dissolved in water) was included at a concentration of 10 uM. Whole-cell Ca fluorescence measured from voltage-clamped cells was performed with Cairn Research Optoscan Monochromator (Excitation 488 nm, emission 515 nm long pass) (Cain Research Ltd., Faverham, UK). By applying 100 ms square voltage step from −45 to 0 mV at 0.125 Hz by an Axociamp 2B amplifier (Axon Instruments, Foster City, Calif., USA), basal Ca transients were recorded, and tau values were obtained by monoexponential fitting of the Ca^2+ extrusion phase from regular transients (τ) and caffeine transients (τcaff) after rapid applications of 10 mM caffeine. SERCA2 rate constant were calculated as: k_SERCA=1/τ−1/τcaff.
(Patch clamp records ionic current or voltage across a cell membrane.)

The nature of series [5]: Aqueous solubility of tribenzylamine and salts quantified by HPLC (AUC). The class given is physicochemical. The following applies: free base in water. How it is done:
Tribenzylamine and the corresponding salts were dissolved in water and the solubility was quantified (area under curve (AUC)) by HPLC

Setting [6] is: average ± standard deviation (n = 3) or ± half range (n = 2), read-out: EC50 (n).
[7] abbreviates: average ± standard deviation (n = 3) or ± half range (n = 2), read-out: EC50 in μM (n).
The mark [8] stands for this setting: screening of compound library, read-out: EC50.

Structures are written as SMILES. Where two headings read alike, the source gives them in different places.

Sequence of GST-AKAP18δ: PLB-biotin interaction (Q6JP77 whole entry): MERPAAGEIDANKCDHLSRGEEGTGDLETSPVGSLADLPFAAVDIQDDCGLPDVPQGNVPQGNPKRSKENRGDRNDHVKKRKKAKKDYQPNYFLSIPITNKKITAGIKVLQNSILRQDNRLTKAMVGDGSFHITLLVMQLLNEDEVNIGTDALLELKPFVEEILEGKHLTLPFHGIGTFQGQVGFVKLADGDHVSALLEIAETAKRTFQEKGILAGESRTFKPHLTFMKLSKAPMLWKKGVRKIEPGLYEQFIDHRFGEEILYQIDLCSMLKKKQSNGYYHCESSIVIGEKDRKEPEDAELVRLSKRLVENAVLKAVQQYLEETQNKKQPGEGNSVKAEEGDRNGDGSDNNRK

Take `CC(c1ccccc1)N(Cc1ccc(N(C)C)cc1)Cc1ccc(N(C)C)cc1` (stereo not shown) [Example 2h]: the “Viability (100 μM) 24 hours” value in series [1] was 0.91. One may read the EC50 as the concentration at which the effect is half-maximal. For `CN(C)c1ccc(CN(Cc2ccccc2)Cc2ccc3c(c2)CCO3)cc1` [Example 3d], the values for the EC50 in series [2] (setting [6]) and in series [2] (read-out: EC50) were 2.45 ± 0.73 µM and 2.79 µM, respectively. In series [1], the “Viability (100 μM) 24 hours” value was found to be 0.58. Moreover, the “effect on PLB phosphorylation in cardiomyocytes” value in series [3] is given as “did not appear to have an effect”. Take `CN(C)c1ccc(CN(Cc2ccccc2)Cc2ccc(N(C)C)cc2)cc1` [Example 2g]: the EC50 in series [2] (setting [7]) was 1.7 ± 0.91 µM. The “Viability (100 μM) 24 hours” value in series [1] turned out to be 0.56. For the same compound, in series [3], the “Effect on PLB phosphorylation in cardiomyocytes” value is listed as “++” and the “effect on PLB phosphorylation in cardiomyocytes” value is given as “concentration dependent inhibition of PLB-phosphorylation”. The SERCA2 activity entry in series [4] was “increased SERCA2 activity”.

For `O=C(O)c1csc(CN(Cc2ccc(F)cc2)Cc2cccc(Cl)c2)n1`, the EC50 in series [2] (setting [8]) came out at 36.4 µM. As to `O=C(O)c1ccc(CN(Cc2ccccc2)Cc2ccc(C(=O)O)cc2)cc1`, the EC50 in series [2] (setting [8]) is 29.6 µM. Take `Nc1ccc(CN(Cc2ccc(N)cc2)Cc2ccc(N)cc2)cc1`: the EC50 in series [2] (setting [8]) worked out at 22.2 µM.

`CC(C)(C)c1ccc(CN(CCC(c2ccccc2)c2ccccc2)Cc2nc(C(=O)O)cs2)cc1`: the EC50 in series [2] (setting [8]) came to 21.1 µM. With `Oc1ccc(O)c(CN(Cc2ccncc2)Cc2ccc(F)cc2)c1` [Example 3b], the EC50 result in series [2] was “approximately the same as for 2b”; in series [2] (setting [6]), 5.43 ± 1.11 µM. The “Viability (100 μM) 24 hours” value in series [1] is listed as 0.03.

For `O=[N+]([O-])c1ccc(CN(Cc2ccccc2)Cc2ccc([N+](=O)[O-])cc2)cc1`, the EC50 in series [2] (setting [8]) was 7.5 µM.

Regarding `O=C(O)c1csc(CN(Cc2cccc(C(F)(F)F)c2)Cc2ccccc2F)n1`, the EC50 in series [2] (setting [8]) came to 216 µM. Still for that read-out and setting: to `O=C(O)c1csc(CN(CCC(c2ccccc2)c2ccccc2)Cc2ccccc2F)n1` belongs 10.6 µM; to `CN(C)c1ccc(CN(Cc2ccccc2)Cc2ccc(N(C)C)cc2)cc1` [drawing 177], 2 µM.

As for `O=C(O)c1ccc(CN(Cc2ccccc2)Cc2ccc(F)cc2)cc1` [Example 3f], in series [1], the “Viability (100 μM) 24 hours” value stood at 0.98. In series [3], the “Effect on PLB phosphorylation in cardiomyocytes” value is on record as “+” and the “effect on PLB phosphorylation in cardiomyocytes” value is “did not appear to have an effect”. Turning to `Cc1ccc(CN(CCC(c2ccccc2)c2ccccc2)Cc2nc(C(=O)O)cs2)cc1`, in series [2] (setting [8]), the EC50 was found to be 35.4 µM.

For `Fc1ccc(CN(Cc2ccncc2)Cc2ccc(F)cc2)cc1` [Example 2a], in series [1], the “Viability (100 μM) 24 hours” value was determined as 0.85. For `CC(C)(C)c1ccc(CN(Cc2ccncc2)Cc2ccc(F)cc2)cc1` [Example 3a], the “Viability (100 μM) 24 hours” value in series [1] came to 0.79. As to `Fc1ccc(CN(Cc2ccccc2)Cc2ccc(-c3ccccc3-c3nn[nH]n3)cc2)cc1` [Example 3g], the EC50 in series [2] (setting [6]) and in series [2] (read-out: EC50) was 47.1 µM in each case. Besides, the “Viability (100 μM) 24 hours” value in series [1] came out at 0.80. As to `O=C(Nc1ccccc1)Nc1ccc(CN(Cc2ccccc2)Cc2ccc(NC(=O)Nc3ccccc3)cc2)cc1`, the EC50 in series [2] (setting [8]) was determined as 3.6 µM.

As for `CN(C)c1ccc(CN(Cc2ccccc2)CC(c2ccccc2)c2ccccc2)cc1` [Example 3c], the EC50 in series [2] (setting [6]) was 0.44 ± 0.18 µM. Further, the EC50 in series [2] (read-out: EC50) is 0.327 µM. In addition, in series [1], the “Viability (100 μM) 24 hours” value was found to be 0.74. Further, in series [3], the “Effect on PLB phosphorylation in cardiomyocytes” value is on record as “+” and the “effect on PLB phosphorylation in cardiomyocytes” value is “somewhat weaker than that of 2g”. `O=C(O)c1csc(CN(Cc2ccc(F)cc2)Cc2ccc(Cl)cc2)n1`: the EC50 in series [2] (setting [8]) is 94.3 µM. In the case of `COC(=O)c1ccc(CN(Cc2ccccc2)Cc2ccc(C(=O)OC)cc2)cc1` [Example 2f], the “Viability (100 μM) 24 hours” value in series [1] was determined as 0.92.

Regarding `Oc1ccc(O)c(CN(Cc2ccncc2)Cc2cc(O)ccc2O)c1` [Example 2b], the EC50 in series [2] (setting [7]) amounted to 12.3 ± 3.08 µM. The “Viability (100 μM) 24 hours” value in series [1] is 0.10. Moreover, the “Effect on PLB phosphorylation in cardiomyocytes” value in series [3] is reported as “−”. In the case of `O=C(O)c1csc(CN(CCC(c2ccccc2)c2ccccc2)Cc2ccc(F)cc2)n1`, in series [2] (setting [8]), the EC50 is 18 µM. `O=C(O)c1csc(CN(Cc2ccc(F)cc2)Cc2ccc(OCc3ccccc3)cc2)n1`: the EC50 in series [2] (setting [8]) amounted to 39.5 µM. In the case of `Cc1ccc(CN(Cc2ccc(F)cc2)Cc2nc(C(=O)O)cs2)cc1`, the EC50 in series [2] (setting [8]) amounted to 137 µM. Consider `COc1ccc(CN(Cc2ccc(F)cc2)Cc2nc(C(=O)O)cs2)cc1`, for which, in series [2] (setting [8]), the EC50 was 25.6 µM. For `Cc1ccc(NC(=O)Nc2ccc(CN(Cc3ccccc3)Cc3ccc(NC(=O)Nc4ccc(C)cc4)cc3)cc2)cc1`, in series [2] (setting [8]), the EC50 amounted to 2.5 µM. `O=C(Nc1ccc(F)cc1)Nc1ccc(CN(Cc2ccccc2)Cc2ccc(NC(=O)Nc3ccc(F)cc3)cc2)cc1`: in series [2] (setting [8]), the EC50 is 9.3 µM.

In the case of `O=C(O)c1csc(CN(Cc2ccc(F)cc2)Cc2cccc(C(F)(F)F)c2)n1`, the EC50 in series [2] (setting [8]) is 60.5 µM. Turning to `COC(=O)c1ccc(CN(Cc2ccccc2)Cc2ccc(F)cc2)cc1` [Example 3e], the “Viability (100 μM) 24 hours” value in series [1] was determined as 0.57. In the case of `CCN(CC)c1ccc(CN(Cc2ccccc2)Cc2ccc(N(CC)CC)cc2)cc1`, in series [2] (setting [8]), the EC50 stood at 2.9 µM. The same measure, in the same setting: to `Cc1ccc(NC(=O)Nc2ccc(CN(Cc3ccc(NC(=O)Nc4ccccc4)cc3)Cc3ccc(NC(=O)Nc4ccc(C)cc4)cc3)cc2)cc1` belongs 5.2 µM; to `Nc1ccc(CN(Cc2ccccc2)Cc2ccc(N)cc2)cc1`, 3.8 µM.

For `c1ccc(CN(Cc2ccccc2)Cc2ccccc2)cc1` [tribenzylamine, Tribenzylamine], the “AUC Free base” value in series [5] is recorded as “≈0 mAu*s”. For `CC(C)(C)c1ccc(CN(Cc2ccc(F)cc2)Cc2nc(C(=O)O)cs2)cc1`, in series [2] (setting [8]), the EC50 is 41.6 µM.

On to `Cc1ccc(CN(Cc2cccc(C(F)(F)F)c2)Cc2nc(C(=O)O)cs2)cc1`, for which the EC50 in series [2] (setting [8]) amounted to 98.3 µM.

Values taken from patent US9951033B2, “Tertiary amines for use in the treatment of cardiac disorders” (Universitetet I Oslo, priority 2012, dated 2018).
